Measurements as given in patent US20240124460A1, “METHODS AND COMPOSITIONS FOR TARGETED PROTEIN DEGRADATION” (Ranok Therapeutics (Hangzhou) Co. Ltd., priority 2020, published 2024).

Legend:
HSP90α protein [1] = target: T1, HSP90α protein (Homo sapiens, UniProt P07900); assay: HSP90α-binding FP (BODIPY) assay; conditions: FP competition with BODIPY-labeled RNK04010
T1 construct: purchased BPS Bioscience #50298
In short: (§1)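 Fluorescence polarization measured competition with N-terminal human HSP90α, using either FITC-geldanamycin or BODIPY-labelled triazolone RNK04010 as tracer (5 nM final each). Compounds were tested in 2.5-fold dilutions from 20 μM to 5.2 nM, with incubation at 25 °C for 120 min (FITC) or 300 min (BODIPY).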

HSP90α protein [2] = target: T1, HSP90α protein; assay: HSP90α-binding FP (FITC) assay; conditions: FP competition with FITC-geldanamycin
In short: as §1

ERBB2 = ERBB2 (HER2) flow cytometry protein degradation assay in BT-474 cells; type: cell-based, human; conditions: DC50, BT-474 cells, 24 hr
In short: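 BT-474 cells trypsinised after compound treatment and stained with PE-conjugated anti-ERBB2 antibody, 30 min at 25° C in the dark, then fixed in 1% paraformaldehyde for flow cytometry. % inhibition = 100−(D−B)/(S−B)*100, using treated, untreated-stained and unstained cell fluorescence.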

[3] = system: A549 human lung carcinoma; assay: A549 CCK-8 proliferation assay; type: cell-based; conditions: A549 cells, 72 hr
Experimental: (§2) The following cancer cell lines were employed: A549 human lung carcinoma (ATCC, #CCL-185); BT-474 human breast carcinoma (ATCC, #HTB-20); MDA-MB-231 human breast adenocarcinoma (ATCC, #CRM−HTB-26); MDA-MB-468 human breast adenocarcinoma (ATCC, #HTB-132); MV-4-11 human acute myeloid leukemia (ATCC, #CRL-9591); and U-87 MG human glioblastoma (ATCC, #HTB-14). Cell lines were cultured essentially according to ATCC recommendations.
(§3) 3-fold serial dilutions of each test compound were prepared ranging from 20 μM to 1.02 nM.
(§4) % Inhibition=100−(D−B)/(S−B)*100%. • S: Absorbance of cells treated with DMSO • D: Absorbance of compound-treated cells • B: Absorbance of medium with DMSO without cells

[4] = system: MDA-MB-231 human breast adenocarcinoma; assay: MDA-MB-231 CCK-8 proliferation assay; type: cell-based; conditions: MDA-MB-231 cells, 72 hr
Experimental: as §2, §3, §4

[5] = system: MDA-MB-468 human breast adenocarcinoma; assay: MDA-MB-468 CCK-8 proliferation assay; type: cell-based; conditions: MDA-MB-468 cells, 72 hr
Experimental: as §2, §3, §4

[6] = system: MV-4-11 human acute myeloid leukemia; assay: MV-4-11 CCK-8 proliferation assay; type: cell-based; conditions: MV-4-11 cells, 72 hr
In short: (§5)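 CCK-8 absorbance read-out, with inhibition expressed against DMSO-treated cells after subtracting a cell-free DMSO medium blank. Compounds tested over a 3-fold dilution series spanning 20 μM to 1.02 nM; lines grown essentially as ATCC recommends.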

[7] = system: U-87 MG human glioblastoma; assay: U87 MG CCK-8 proliferation assay; type: cell-based; conditions: Homo sapiens, U-87 MG, 72 h, U-87 MG cells, read-out: U87MG CCK-8
In short: as §5

MAPK7 [8] = target: T2, MAPK7 (Homo sapiens, UniProt Q13164); assay: MAPK7 Western blot protein degradation assay in U-87 MG cells; type: cell-based; parameters: U-87 MG human glioblastoma cells, which express MAPK7; endogenous in cells; host or cells: U-87 MG; conditions: 48 hr
In short: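 U-87 MG glioblastoma cells treated with compounds at various concentrations for 48 h at 37 °C. MAPK7 (ERK5) levels in protein-normalized lysates measured by Western blot with β-actin as loading reference, quantified by fluorescence imaging.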

MAPK7 [9] = target: T2, MAPK7; assay: MAPK7 kinase assay (ADP-Glo); type: biochemical; parameters: purchased Carna Biosciences #04-146; conditions: ATP 340 μM
In short: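 Recombinant human MAPK7 (20 nM) with 0.1 mg/ml myelin basic protein and 340 μM ATP; compounds in 3-fold dilutions from 50 μM to 2.54 nM. ADP formation read by ADP-Glo luminescence, scaled between 0.5% DMSO and 10 μM XMD17-109 controls.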

T2 sequence (Q13164 whole entry): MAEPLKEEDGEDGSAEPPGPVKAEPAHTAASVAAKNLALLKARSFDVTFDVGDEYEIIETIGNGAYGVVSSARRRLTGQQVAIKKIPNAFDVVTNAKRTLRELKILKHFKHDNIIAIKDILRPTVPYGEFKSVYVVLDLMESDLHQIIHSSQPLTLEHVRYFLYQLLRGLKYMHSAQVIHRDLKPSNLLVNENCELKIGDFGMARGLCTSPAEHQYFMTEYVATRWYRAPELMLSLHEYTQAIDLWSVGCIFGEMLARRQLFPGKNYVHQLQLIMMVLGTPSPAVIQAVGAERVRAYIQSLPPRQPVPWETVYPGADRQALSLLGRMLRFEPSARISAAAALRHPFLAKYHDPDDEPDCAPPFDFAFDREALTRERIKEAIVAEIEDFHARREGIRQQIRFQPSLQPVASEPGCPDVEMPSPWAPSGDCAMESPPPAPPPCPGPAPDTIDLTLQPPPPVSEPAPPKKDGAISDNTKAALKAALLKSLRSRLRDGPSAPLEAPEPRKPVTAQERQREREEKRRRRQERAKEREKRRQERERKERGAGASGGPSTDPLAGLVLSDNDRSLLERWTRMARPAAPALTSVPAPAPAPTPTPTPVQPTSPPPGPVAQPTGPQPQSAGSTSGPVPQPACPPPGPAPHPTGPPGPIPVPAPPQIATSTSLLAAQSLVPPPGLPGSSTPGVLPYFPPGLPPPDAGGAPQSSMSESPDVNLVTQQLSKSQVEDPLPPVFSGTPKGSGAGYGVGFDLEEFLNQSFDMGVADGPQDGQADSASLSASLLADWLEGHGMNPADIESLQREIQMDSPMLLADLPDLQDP

SMILES: CCOc1cc(N2CCC(C(=O)N3CCC(N4CCN(Cc5ccc(-n6c(O)nnc6-c6cc(C(C)C)c(O)cc6O)cc5)CC4)CC3)CC2)ccc1Nc1ncc2c(n1)N(C)c1ccccc1C(=O)N2C [Compound 004, 2-((4-(4-(4-(4-(4-(3-(2,4-dihydroxy-5-isopropylphenyl)-5-hydroxy-4H-1,2,4-triazol-4-yl)benzyl)piperazin-1-yl)piperidine-1-carbonyl)piperidin-1-yl)-2-ethoxyphenyl)amino)-5,11-dimethyl-5H-benzo[e]pyrimido[5,4-b][1,4]diazepin-6(11H)-one]
- IC50 (HSP90α protein [1]): 100 to 1000 nM
- IC50 (HSP90α protein [2]): 100 to 1000 nM
- ERBB2 degradation (ERBB2): B (DC50 = 100-1000 nM)
- EC50 [3]: 100 to 1000 nM
- EC50 [4]: < 100 nM
- EC50 [5]: < 100 nM
- EC50 ([6]; Homo sapiens, MV4-11): < 100 nM
- EC50 [7]: < 100 nM
- MAPK7 degradation (30 nM) (MAPK7 [8]): C (< 33% degradation)
- MAPK7 degradation (100 nM) (MAPK7 [8]): C (< 33% degradation)
- MAPK7 degradation (1000 nM) (MAPK7 [8]): A (>66% degradation)

SMILES: CCOc1cc(N2CCC(C(=O)NCC3CCN(C(=O)C4CCN(Cc5ccc(-n6c(O)nnc6-c6cc(C(C)C)c(O)cc6O)cc5)CC4)C3)CC2)ccc1Nc1ncc2c(n1)N(C)c1ccccc1C(=O)N2C (centres unmarked) [Compound 010, N-((1-(1-(4-(3-(2,4-dihydroxy-5-isopropylphenyl)-5-hydroxy-4H-1,2,4-triazol-4-yl)benzyl)piperidine-4-carbonyl)pyrrolidin-3-yl)methyl)-1-(4-((5,11-dimethyl-6-oxo-6,11-dihydro-5H-benzo[e]pyrimido[5,4-b][1,4]diazepin-2-yl)amino)-3-ethoxyphenyl)piperidine-4-carboxamide]
- IC50 (HSP90α protein [2]): 100 to 1000 nM
- ERBB2 degradation (ERBB2): C (DC50 > 1000 nM)
- EC50 [4]: > 1000 nM
- EC50 [5]: > 1000 nM
- EC50 ([6]; Homo sapiens, MV4-11): < 100 nM
- EC50 [7]: 100 to 1000 nM

SMILES: CCOc1cc(N2CCC(C(=O)N3CCC(CN4CCN(Cc5ccc(-n6c(O)nnc6-c6cc(CC)c(O)cc6O)cc5)CC4)CC3)CC2)ccc1Nc1ncc2c(n1)N(C)c1ccccc1C(=O)N2C [Compound 013, 2-((2-ethoxy-4-(4-(4-((4-(4-(3-(5-ethyl-2,4-dihydroxyphenyl)-5-hydroxy-4H-1,2,4-triazol-4-yl)benzyl)piperazin-1-yl)methyl)piperidine-1-carbonyl)piperidin-1-yl)phenyl)amino)-5,11-dimethyl-5H-benzo[e]pyrimido[5,4-b][1,4]diazepin-6(11H)-one]
- IC50 (HSP90α protein [2]): 100 to 1000 nM
- ERBB2 degradation (ERBB2): B (DC50 = 100-1000 nM)
- EC50 [4]: 100 to 1000 nM
- EC50 [5]: 100 to 1000 nM
- EC50 ([6]; Homo sapiens, MV4-11): < 100 nM
- EC50 [7]: 100 to 1000 nM
- MAPK7 degradation (30 nM) (MAPK7 [8]): C (< 33% degradation)
- MAPK7 degradation (100 nM) (MAPK7 [8]): C (< 33% degradation)
- MAPK7 degradation (1000 nM) (MAPK7 [8]): A (>66% degradation)

SMILES: CCOc1cc(N2CCC(C(=O)N3CCC(N4CCN(c5ccc(-n6c(O)nnc6-c6cc(C(C)C)c(O)cc6O)cc5)CC4)CC3)CC2)ccc1Nc1ncc2c(n1)N(C)c1ccccc1C(=O)N2C [Compound 040, 2-((4-(4-(4-(4-(4-(3-(2,4-dihydroxy-5-isopropylphenyl)-5-hydroxy-4H-1,2,4-triazol-4-yl)phenyl)piperazin-1-yl)piperidine-1-carbonyl)piperidin-1-yl)-2-ethoxyphenyl)amino)-5,11-dimethyl-5,11-dihydro-6H-benzo[e]pyrimido[5,4-b][1,4]diazepin-6-one]
- IC50 (HSP90α protein [1]): 100 to 1000 nM
- EC50 [3]: 100 to 1000 nM
- EC50 [4]: < 100 nM
- EC50 [5]: < 100 nM
- EC50 ([6]; Homo sapiens, MV4-11): < 100 nM
- EC50 [7]: 100 to 1000 nM
- MAPK7 degradation (30 nM) (MAPK7 [8]): C (< 33% degradation)
- MAPK7 degradation (100 nM) (MAPK7 [8]): B (33-66% degradation)
- MAPK7 degradation (300 nM) (MAPK7 [8]; 300 nM): A (>66% degradation)
- MAPK7 degradation (1000 nM) (MAPK7 [8]): A (>66% degradation)

SMILES: CCOc1cc(N2CCC(C(=O)N3CCC(CN4CCN(Cc5ccc(-n6c(O)nnc6-c6cc(C(C)C)c(O)cc6OC)cc5)CC4)CC3)CC2)ccc1Nc1ncc2c(n1)N(C)c1ccccc1C(=O)N2C [Compound 052, 2-((2-ethoxy-4-(4-(4-((4-(4-(3-hydroxy-5-(4-hydroxy-5-isopropyl-2-methoxyphenyl)-4H-1,2,4-triazol-4-yl)benzyl)piperazin-1-yl)methyl)piperidine-1-carbonyl)piperidin-1-yl)phenyl)amino)-5,11-dimethyl-5,11-dihydro-6H-benzo[e]pyrimido[5,4-b][1,4]diazepin-6-one]
- IC50 (HSP90α protein [1]): > 1000 nM
- ERBB2 degradation (ERBB2): C (DC50 > 1000 nM)
- EC50 [3]: > 1000 nM
- EC50 [4]: > 1000 nM
- EC50 [5]: > 1000 nM
- EC50 ([6]; Homo sapiens, MV4-11): > 1000 nM
- EC50 [7]: > 1000 nM
- IC50 (MAPK7 [9]): > 1000 nM

SMILES: CCOc1cc(N2CCC(C(=O)N3CCC(CN4CCN(Cc5ccc(-n6c(C(=O)NC(C)C(F)(F)F)nnc6-c6cc(CC)c(O)cc6O)cc5)CC4)CC3)CC2)ccc1Nc1ncc2c(n1)N(S(C)(=O)=O)c1ccccc1C(=O)N2C.Cl (centres unmarked) [Compound 078, 4-(4-((4-((1-(1-(3-ethoxy-4-((5-methyl-11-(methylsulfonyl)-6-oxo-6,11-dihydro-5H-benzo[e]pyrimido[5,4-b][1,4]diazepin-2-yl)amino)phenyl)piperidine-4-carbonyl)piperidin-4-yl)methyl)piperazin-1-yl)methyl)phenyl)-5-(5-ethyl-2,4-dihydroxyphenyl)-N-(1,1,1-trifluoropropan-2-yl)-4H-1,2,4-triazole-3-carboxamide]
- IC50 (HSP90α protein [1]): 100 to 1000 nM
- ERBB2 degradation (ERBB2): B (DC50 = 100-1000 nM)
- EC50 [3]: 100 to 1000 nM
- EC50 [6]: < 100 nM
- EC50 [7]: 100 to 1000 nM
- IC50 (MAPK7 [9]): 100 to 1000 nM
